Measurements published in patent US20050009840A1 (SUGEN, INC., priority 2003, published 2005).

The compounds below were run against T1, Met kinase domain (GST fusion protein) (Homo sapiens, UniProt P08581) (assay: Met transphosphorylation assay (ELISA, poly(glu-tyr) substrate)). Settings: read-out: Met IC50.
T1 construct: Purified GST fusion protein containing the Met kinase domain
Type: biochemical
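Also: Cell-free ELISA with plate-bound poly(Glu:Tyr 4:1) phosphorylated by GST-fused Met kinase domain plus ATP and Mn2+, phosphotyrosine detected by anti-phosphotyrosine antibody with HRP and ABTS read-out.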

T1 sequence (P08581 1078-1345 limits assumed): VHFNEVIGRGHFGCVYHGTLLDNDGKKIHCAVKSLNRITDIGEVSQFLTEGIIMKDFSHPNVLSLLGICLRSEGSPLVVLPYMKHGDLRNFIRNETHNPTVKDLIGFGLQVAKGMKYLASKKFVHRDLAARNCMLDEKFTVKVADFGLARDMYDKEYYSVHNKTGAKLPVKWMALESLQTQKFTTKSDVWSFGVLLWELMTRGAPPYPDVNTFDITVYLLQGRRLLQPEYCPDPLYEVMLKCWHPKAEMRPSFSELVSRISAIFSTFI

`Nc1ncc(-c2ccccc2OC(F)(F)F)cc1OCc1c(Cl)cccc1Cl` [Example I-29, 3-(2,6-Dichloro-benzyloxy)-5-(2-trifluoromethoxy-phenyl)-pyridin-2-ylamine] and `Nc1ncc(-c2ccccc2OCc2ccccc2)cc1OCc1c(Cl)cccc1Cl` [Example I-31, 5-(2-Benzyloxy-phenyl)-3-(2,6-dichloro-benzyloxy)-pyridin-2-ylamine] cannot be ordered by IC50: > 20 µM for the first, > 20 µM for the second.

`Cc1csc(-c2cnc(N)c(OCc3c(Cl)cccc3Cl)c2)c1` [Example I-30, 3-(2,6-Dichloro-benzyloxy)-5-(4-methyl-thiophen-2-yl)-pyridin-2-ylamine] and `COc1cccc(-c2cnc(N)c(OCc3c(Cl)cccc3Cl)c2)c1` [Example I-32, 3-(2,6-Dichloro-benzyloxy)-5-(3-methoxy-phenyl)-pyridin-2-ylamine] are within 1.5-fold of each other in IC50: 3.5 µM for the first, 4.01 µM for the second.

Compared with `Nc1ncc(-c2cc3ccccc3[nH]2)cc1OCc1c(Cl)cccc1Cl` [Example I-33, 3-(2,6-Dichloro-benzyloxy)-5-(1H-indol-2-yl)-pyridin-2-ylamine], `Nc1ncc(-c2ccc3[nH]ccc3c2)cc1OCc1c(Cl)cccc1Cl` [Example I-58, 3-(2,6-Dichloro-benzyloxy)-5-(1H-indol-5-yl)-pyridin-2-ylamine] is 1.7-fold lower in IC50: 7.5 µM for the first, 4.3 µM for the second. The second is the more potent here.

Going from `Nc1ncc(-c2ccc(OCc3ccccc3)c(F)c2)cc1OCc1c(Cl)cccc1Cl` [Example I-34, 5-(4-Benzyloxy-3-fluoro-phenyl)-3-(2,6-dichloro-benzyloxy)-pyridin-2-ylamine] to `Nc1ncc(-c2ccc(OCC(=O)O)cc2)cc1OCc1c(Cl)cccc1Cl` [Example I-55, {4-[6-Amino-5-(2,6-dichloro-benzyloxy)-pyridin-3-yl]-phenoxy}-acetic acid], the IC50 falls from 13.5 µM to 2.41 µM (5.6-fold).

`Nc1ncc(-c2ccc(C(=O)O)cc2)cc1OCc1c(Cl)cccc1Cl` [Example I-35, 4-[6-Amino-5-(2,6-dichloro-benzyloxy)-pyridin-3-yl]-benzoic acid] and `Nc1ncc(-c2cccc(C(=O)O)c2)cc1OCc1c(Cl)cccc1Cl` [Example I-53, 3-[6-Amino-5-(2,6-dichloro-benzyloxy)-pyridin-3-yl]-benzoic acid] are within 1.5-fold of each other in IC50: 12.8 µM for the first, 16 µM for the second.

`CCN(CC)CCNC(=O)c1ccc(-c2cnc(N)c(OCc3c(Cl)cccc3Cl)c2)cc1` [Example I-36, 4-[6-Amino-5-(2,6-dichloro-benzyloxy)-pyridin-3-yl]-N-(2-diethylamino-ethyl)-benzamide] and `CCN(CC)CCCNC(=O)c1ccc(-c2cnc(N)c(OCc3c(Cl)cccc3Cl)c2)cc1` [Example I-37, 4-[6-Amino-5-(2,6-dichloro-benzyloxy)-pyridin-3-yl]-N-(3-diethylamino-propyl)-benzamide] are within 1.5-fold of each other in IC50: 0.99 µM for the first, 0.82 µM for the second.

Compared with `CN1CCN(C(=O)c2ccc(-c3cnc(N)c(OCc4c(Cl)cccc4Cl)c3)cc2)CC1` [Example I-38, {4-[6-Amino-5-(2,6-dichloro-benzyloxy)-pyridin-3-yl]-phenyl}-(4-methyl-piperazin-1-yl)-methanone], `Nc1ncc(-c2ccc(C(=O)N3CCN(C4CC4)CC3)cc2)cc1OCc1c(Cl)cccc1Cl` [Example I-48, {4-[6-Amino-5-(2,6-dichloro-benzyloxy)-pyridin-3-yl]-phenyl}-(4-cyclopropyl-piperazin-1-yl)-methanone] is 1.6-fold higher in IC50: 1.02 µM for the first, 1.67 µM for the second.

`Nc1ncc(-c2ccc(C(=O)N3CCC(CCO)CC3)cc2)cc1OCc1c(Cl)cccc1Cl` [Example I-42, {4-(6-Amino-5-(2,6-dichloro-benzyloxy)-pyridin-3-yl]-phenyl}-[4-(2-hydroxy-ethyl)-piperidin-1-yl]-methanone] and `CN(C)[C@H]1CCN(C(=O)c2ccc(-c3cnc(N)c(OCc4c(Cl)cccc4Cl)c3)cc2)C1` [Example I-43, {4-[6-Amino-5-(2,6-dichloro-benzyloxy)-pyridin-3-yl]-phenyl}-[(3S)-3-dimethylamino-pyrrolidin-1-yl]-methanone] are within 1.5-fold of each other in IC50: 0.56 µM for the first, 0.47 µM for the second.

Compared with `CN(C)[C@@H]1CCN(C(=O)c2ccc(-c3cnc(N)c(OCc4c(Cl)cccc4Cl)c3)cc2)C1` [Example I-44, {4-[6-Amino-5-(2,6-dichloro-benzyloxy)-pyridin-3-yl]-phenyl}-[(3R)-3-dimethylamino-pyrrolidin-1-yl]-methanone], `Nc1ncc(-c2ccc(C(=O)N3CCC[C@@H]3CNCC3CC3)cc2)cc1OCc1c(Cl)cccc1Cl` [Example I-49, {4-[6-Amino-5-(2,6-dichloro-benzyloxy)-pyridin-3-yl]-phenyl}-{(2R)-2-[(cyclopropylmethyl-amino)-methyl]-pyrrolidin-1-yl}-methanone] is 1.8-fold lower in IC50: 0.65 µM for the first, 0.37 µM for the second.

Going from `Nc1ncc(-c2ccc(C(=O)NCC(O)CN3CCCC3)cc2)cc1OCc1c(Cl)cccc1Cl` (stereo not shown) [Example I-46, 4-[6-Amino-5-(2,6-dichloro-benzyloxy)-pyridin-3-yl]-N-(2-hydroxy-3-pyrrolidin-1-yl-propyl)-benzamide] to `CN(CC(O)CN1CCCC1)C(=O)c1ccc(-c2cnc(N)c(OCc3c(Cl)cccc3Cl)c2)cc1` (stereo not shown) [Example I-51, 4-[6-Amino-5-(2,6-dichloro-benzyloxy)-pyridin-3-yl]-N-(2-hydroxy-3-pyrrolidin-1-yl-propyl)-N-methyl-benzamide], the IC50 rises from 0.2 µM to 0.71 µM (3.5-fold). The first is the more potent here.

`Nc1ncc(-c2ccc(C(=O)N3CCC[C@H]3CN3CCCC(F)C3)cc2)cc1OCc1c(Cl)cccc1Cl` (stereo partly drawn) [Example I-47, {4-[6-Amino-5-(2,6-dichloro-benzyloxy)-pyridin-3-yl]-phenyl}-[(2S)-2-(3-fluoro-piperidin-1-ylmethyl)-pyrrolidin-1-yl]-methanone] and `Nc1ncc(-c2ccc(C(=O)N3CCC[C@H]3CN3CC[C@@H](O)C3)cc2)cc1OCc1c(Cl)cccc1Cl` [Example I-52, {4-[6-Amino-5-(2,6-dichloro-benzyloxy)-pyridin-3-yl]-phenyl}-{(2S)-2-[(3R)-3-hydroxy-pyrrolidin-1-ylmethyl]-pyrrolidin-1-yl}-methanone] are within 1.5-fold of each other in IC50: 0.42 µM for the first, 0.53 µM for the second.

Going from `Nc1ncc(-c2ccc(C(=O)N(CC3CC3)C[C@H]3CCCN3)cc2)cc1OCc1c(Cl)cccc1Cl` [Example I-50, 4-[6-Amino-5-(2,6-dichloro-benzyloxy)-pyridin-3-yl]-N-cyclopropylmethyl-N-(2R)-pyrrolidin-2-ylmethyl-benzamide] to `Nc1ncc(-c2ccc(OCC(=O)N3CCC[C@@H]3CN3CCCC3)cc2)cc1OCc1c(Cl)cccc1Cl` [Example I-56, 2-{4-[6-Amino-5-(2,6-dichloro-benzyloxy)-pyridin-3-yl]-phenoxy}-1-[(2R)-2-pyrrolidin-1-ylmethyl-pyrrolidin-1-yl]-ethanone], the IC50 rises from 0.29 µM to 0.53 µM (1.8-fold). The first is the more potent here.

Going from `Nc1ncc(-c2cccc(C(=O)N3CCC[C@@H]3CN3CCCC3)c2)cc1OCc1c(Cl)cccc1Cl` [Example I-54, {3-(6-Amino-5-(2,6-dichloro-benzyloxy)-pyridin-3-yl]-phenyl}-[(2R)-2-pyrrolidin-1-ylmethyl-pyrrolidin-1-yl]-methanone] to `Nc1ncc(-c2ccc(OCC(=O)N3CCC[C@H]3CN3CCCC3)cc2)cc1OCc1c(Cl)cccc1Cl` [Example I-57, 2-{4-[6-Amino-5-(2,6-dichloro-benzyloxy)-pyridin-3-yl]-phenoxy}-1-[(2S)-2-pyrrolidin-1-ylmethyl-pyrrolidin-1-yl]-ethanone], the IC50 falls from 2.5 µM to 0.5 µM (5-fold).

Compared with `CN1CC=C(c2c[nH]c3ccc(-c4cnc(N)c(OCc5c(Cl)cccc5Cl)c4)cc23)CC1` [Example I-59, 3-(2,6-Dichloro-benzyloxy)-5-[3-(1-methyl-1,2,3,6-tetrahydro-pyridin-4-yl)-1H-indol-5-yl]-pyridin-2-ylamine], `CN1CCC(c2c[nH]c3ccc(-c4cnc(N)c(OCc5c(Cl)cccc5Cl)c4)cc23)CC1` [Example I-60, 3-(2,6-Dichloro-benzyloxy)-5-[3-(1-methyl-piperidin-4-yl)-1H-indol-5-yl]-pyridin-2-ylamine] is 1.9-fold higher in IC50: 1.57 µM for the first, 3.04 µM for the second. The first is the more potent here.

`Nc1ncc(-c2ccc3[nH]cc(CN4CCOCC4)c3c2)cc1OCc1c(Cl)cccc1Cl` [Example I-61, 3-(2,6-Dichloro-benzyloxy)-5-(3-morpholin-4-ylmethyl-1H-indol-5-yl)-pyridin-2-ylamine] and `Nc1ncc(-c2ccc3[nH]cc(CN4CCCC4)c3c2)cc1OCc1c(Cl)cccc1Cl` [Example I-63, 3-(2,6-Dichloro-benzyloxy)-5-(3-pyrrolidin-1-ylmethyl-1H-indol-5-yl)-pyridin-2-ylamine] are within 1.5-fold of each other in IC50: 1.19 µM for the first, 1.34 µM for the second.

Compared with `Nc1ncc(-c2ccc3[nH]cc(CN4CCCCC4)c3c2)cc1OCc1c(Cl)cccc1Cl` [Example I-62, 3-(2,6-Dichloro-benzyloxy)-5-(3-piperidin-1-ylmethyl-1H-indol-5-yl)-pyridin-2-ylamine], `CC(=O)N1CCN(Cc2c[nH]c3ccc(-c4cnc(N)c(OCc5c(Cl)cccc5Cl)c4)cc23)CC1` [Example I-68, 1-(4-{5-[6-Amino-5-(2,6-dichloro-benzyloxy)-pyridin-3-yl]-1H-indol-3-ylmethyl}-piperazin-1-yl)-ethanone] is 1.5-fold higher in IC50: 1.41 µM for the first, 2.18 µM for the second.

Compared with `CCN(CC)Cc1c[nH]c2ccc(-c3cnc(N)c(OCc4c(Cl)cccc4Cl)c3)cc12` [Example I-64, 3-(2,6-Dichloro-benzyloxy)-5-(3-diethylaminomethyl-1H-indol-5-yl)-pyridin-2-ylamine], `C[C@@H]1CN(Cc2c[nH]c3ccc(-c4cnc(N)c(OCc5c(Cl)cccc5Cl)c4)cc23)C[C@H](C)O1` [Example I-66, 3-(2,6-Dichloro-benzyloxy)-5-[3-(2,6-dimethyl-morpholin-4-ylmethyl)-1H-indol-5-yl]-pyridin-2-ylamine] is higher in IC50: 3.23 µM for the first, > 20 µM for the second.

Compared with `CC(C)(C)OC(=O)N[C@@H]1CCN(Cc2c[nH]c3ccc(-c4cnc(N)c(OCc5c(Cl)cccc5Cl)c4)cc23)C1` [Example I-65], `CC(=O)N[C@@H]1CCN(Cc2c[nH]c3ccc(-c4cnc(N)c(OCc5c(Cl)cccc5Cl)c4)cc23)C1` [Example I-67, N-(1-{5-[6-Amino-5-(2,6-dichloro-benzyloxy)-pyridin-3-yl]-1H-indol-3-ylmethyl}-(3R)-pyrrolidin-3-yl)-acetamide] is 3.5-fold lower in IC50: 6.3 µM for the first, 1.79 µM for the second. The second is the more potent here.

`CC(=O)N1CCN(Cc2c[nH]c3ccc(-c4cnc(N)c(OCc5c(F)ccc(F)c5Cl)c4)cc23)CC1` [Example I-70, 1-(4-{5-[6-Amino-5-(2-chloro-3,6-difluoro-benzyloxy)-pyridin-3-yl]-1H-indol-3-ylmethyl}-piperazin-1-yl)-ethanone] gave an IC50 of 0.8 µM.
